According to US20250381179A1, “CHROMAN-BASED COMPOUNDS FOR TREATING CANCER” (priority 2024, published 2025):

Assays:
[1] = system: ER+/HER2− locally advanced or metastatic breast cancer; test: Phase 1 study: anti-tumor activity (RECIST v1.1; ORR, CBR, best objective response); assay type: in vivo, human; details: for ORR (CR + PR) - n (%): RECIST 1.1, Investigator assessment; for Response - n (%): RECIST 1.1, efficacy evaluable set; for Confirmed Complete Response (cCR) / Confirmed Partial Response (cPR): confirmed by second assessment at least 4 weeks after first
Method: The study employed an open-label, 3+3 design, with the option of adding backfill patients to each cohort cleared and deemed safe. […] Compound (1-g) was administered orally once daily in 28-day cycles. Tumor responses were assessed every 2 cycles using RECIST v1.1 criteria. Therefore, the initial dose of 100 mg QD was chosen to limit the number of patients exposed to lower efficacious dose levels, while adding an additional 2.5-fold safety margin. The study also involves an ongoing dose escalation study where participants receive 100 mg, 200 mg, 300 mg, 400 mg, and 600 mg once daily (QD) dose levels.
Response and progression will be evaluated in this study using RECIST Version 1.1. Lesions are either measurable or non-measurable according to the criteria. The actual number of dose levels to be explored in this study depended on determination of the non-tolerable dose based on DLTs. Other safety data, as well as PK profiles observed during the conduct of the study and any trends for anti-tumor activity were collected. Treatment cycles occurred consecutively. Evaluation of a cohort of at least 3 patients completing 1 cycle of treatment (28 days) is required prior to proceeding to the next dose level. In addition, selected dose levels may be expanded to approximately 20 patients (per dose level).
All efficacy analyses were performed using the Efficacy Evaluable Analysis Set. Objective Response Rate (ORR), defined as the proportion of patients who have measurable disease at baseline with confirmed […] or partial response (PR) (i.e., 2 CRs or PRs at least 4 weeks apart) according to the RECIST Version 1.1 criteria. Clinical Benefit Rate (CBR), defined as the proportion of patients with CR, PR, or stable disease (SD) (where SD is ≥24 weeks) according to the RECIST Version 1.1 criteria. Duration of Response (DOR), defined as the time between first documentation of a response (CR or PR) and first evidence of PD according to RECIST v1.1 or death due to any cause. […] Progression Free Survival (PFS), defined as the time from the first day of study drug administration (Day 1) until disease progression as defined by the RECIST Version 1.1 criteria, or death on study, whichever occurs first. Patients who are alive and free from disease progression were censored at the date of last tumor assessment. For ORR and CBR, estimates and the associated 95% CIs (based on the Clopper-Pearson method), at each dose level were calculated. The absolute and relative difference in ORR and CBR between the two treatment groups was presented. For PFS, Kaplan-Meier curves were generated and the median time to event, and the associated 95% CIs were provided. The hazard ratio and the 95% CIs for these endpoints between the two treatment groups was calculated.
The overall response is evaluated according to the criteria in Table 4.
The objective response rate (ORR) and the clinical benefit rate (CBR) were assessed for the participants. The clinical benefit rate (CBR), as used herein, is defined as confirmed complete response or partial response at any time and stable disease over ≥24 weeks. Evaluable participants need to complete an adequate post-treatment scan. Participants with SD who remain on study <6 months are not included in the denominator.

CYP2D6 = CYP2D6 (Homo sapiens, UniProt P10635); test: CYP2D6 direct inhibition; assay type: in vitro ADME; details: highest concentration evaluated (10 μM)
Sequence of CYP2D6 (P10635 whole entry): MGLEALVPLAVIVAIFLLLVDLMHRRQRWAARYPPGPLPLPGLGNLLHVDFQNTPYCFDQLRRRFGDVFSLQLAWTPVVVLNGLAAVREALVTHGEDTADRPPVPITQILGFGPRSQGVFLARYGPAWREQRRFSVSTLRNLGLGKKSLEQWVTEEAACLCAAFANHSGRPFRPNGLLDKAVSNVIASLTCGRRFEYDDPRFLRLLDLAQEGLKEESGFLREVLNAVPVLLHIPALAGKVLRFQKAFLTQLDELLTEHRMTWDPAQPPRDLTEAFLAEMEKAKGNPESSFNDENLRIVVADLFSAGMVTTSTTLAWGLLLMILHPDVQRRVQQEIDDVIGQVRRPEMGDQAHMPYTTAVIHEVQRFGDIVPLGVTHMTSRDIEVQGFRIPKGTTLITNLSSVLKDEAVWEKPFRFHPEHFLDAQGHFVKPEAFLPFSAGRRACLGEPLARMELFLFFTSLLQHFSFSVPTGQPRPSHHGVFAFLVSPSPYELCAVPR

CYP1A2 = CYP1A2 induction in hepatocytes (activity, mRNA); assay type: in vitro ADME; details: for CYP1A2 mRNA expression increase: 1 of 3 hepatocyte donors
[2] = system: tamoxifen-resistant MCF7 xenograft; test: Tamoxifen-resistant MCF7 xenograft model; assay type: in vivo, mice; details: in combination with the CDK4/6 inhibitor palbociclib
CYP2C8 = molecular target: T1, CYP2C8 (Homo sapiens, UniProt P10632); test: CYP2C8 direct inhibition; assay type: in vitro ADME; details: highest concentration evaluated (10 μM)
T1 sequence (P10632 1-490): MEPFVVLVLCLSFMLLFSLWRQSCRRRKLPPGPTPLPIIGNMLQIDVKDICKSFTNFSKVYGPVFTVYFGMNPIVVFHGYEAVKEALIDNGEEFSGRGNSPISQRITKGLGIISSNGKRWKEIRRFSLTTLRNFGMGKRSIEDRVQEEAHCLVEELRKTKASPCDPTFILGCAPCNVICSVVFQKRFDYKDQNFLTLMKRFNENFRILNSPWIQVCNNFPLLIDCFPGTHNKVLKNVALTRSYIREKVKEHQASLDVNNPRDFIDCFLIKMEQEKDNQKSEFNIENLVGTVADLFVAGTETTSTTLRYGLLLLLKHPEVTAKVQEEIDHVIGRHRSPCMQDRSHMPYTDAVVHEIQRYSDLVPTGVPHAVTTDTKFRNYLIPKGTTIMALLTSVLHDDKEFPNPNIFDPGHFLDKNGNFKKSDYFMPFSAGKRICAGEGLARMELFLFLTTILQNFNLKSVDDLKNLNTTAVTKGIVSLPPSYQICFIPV

SMILES: O=C1CC[C@H](N2Cc3cc(N4CCN(CC5CCN(c6ccc([C@@H]7c8ccc(O)cc8OC[C@@H]7c7ccccc7)cc6F)CC5)CC4)ccc3C2=O)C(=O)N1 [compound (1-g), (S)-3-(5-(4-((1-(2-fluoro-4-((3S,4R)-7-hydroxy-3-phenylchroman-4-yl)phenyl)piperidin-4-yl)methyl)piperazin-1-yl)-1-oxoisoindolin-2-yl)piperidine-2,6-dione]
- Non-Response - n (%) ([1]; Cohort 1 (100 mg QD), N = 2): 1 (50.0) n (%)
- Not Applicable (NA) ([1]; Cohort 1 (100 mg QD), N = 2): 0 n (%)
- Not Evaluable (NE) ([1]; Cohort 1 (100 mg QD), N = 2): 0 n (%)
- Progressive Disease (PD) ([1]; Cohort 1 (100 mg QD), N = 2): 0 n (%)
- Unconfirmed Complete Response (uCR) ([1]; Cohort 1 (100 mg QD), N = 2): 0 n (%)
- Unconfirmed Partial Response (uPR) ([1]; Cohort 1 (100 mg QD), N = 2): 0 n (%)
- ORR (CR + PR) - n (%) ([1]; Cohort 1 (100 mg QD), N = 2): 1 (50.0) n (%)
- Response - n (%) ([1]; Cohort 1 (100 mg QD), N = 2): 1 (50.0) n (%)
- Confirmed Complete Response (cCR) ([1]; Cohort 1 (100 mg QD), N = 2): 0 n (%)
- Confirmed Partial Response (cPR) ([1]; Cohort 1 (100 mg QD), N = 2): 1 (50.0) n (%)
- Non-Response - n (%) ([1]; Cohort 2 (200 mg QD), N = 8): 6 (75.0) n (%)
- Not Applicable (NA) ([1]; Cohort 2 (200 mg QD), N = 8): 0 n (%)
- Not Evaluable (NE) ([1]; Cohort 2 (200 mg QD), N = 8): 1 (12.5) n (%)
- Progressive Disease (PD) ([1]; Cohort 2 (200 mg QD), N = 8): 2 (25.0) n (%)
- Unconfirmed Complete Response (uCR) ([1]; Cohort 2 (200 mg QD), N = 8): 0 n (%)
- Unconfirmed Partial Response (uPR) ([1]; Cohort 2 (200 mg QD), N = 8): 0 n (%)
- ORR (CR + PR) - n (%) ([1]; Cohort 2 (200 mg QD), N = 8): 2 (25.0) n (%)
- Response - n (%) ([1]; Cohort 2 (200 mg QD), N = 8): 2 (25.0) n (%)
- Confirmed Complete Response (cCR) ([1]; Cohort 2 (200 mg QD), N = 8): 0 n (%)
- Confirmed Partial Response (cPR) ([1]; Cohort 2 (200 mg QD), N = 8): 2 (25.0) n (%)
- Non-Response - n (%) ([1]; Cohort 3 (300 mg QD), N = 9): 8 (88.9) n (%)
- Not Applicable (NA) ([1]; Cohort 3 (300 mg QD), N = 9): 0 n (%)
- Not Evaluable (NE) ([1]; Cohort 3 (300 mg QD), N = 9): 0 n (%)
- Progressive Disease (PD) ([1]; Cohort 3 (300 mg QD), N = 9): 4 (44.4) n (%)
- Unconfirmed Complete Response (uCR) ([1]; Cohort 3 (300 mg QD), N = 9): 0 n (%)
- Unconfirmed Partial Response (uPR) ([1]; Cohort 3 (300 mg QD), N = 9): 0 n (%)
- ORR (CR + PR) - n (%) ([1]; Cohort 3 (300 mg QD), N = 9): 1 (11.1) n (%)
- Response - n (%) ([1]; Cohort 3 (300 mg QD), N = 9): 1 (11.1) n (%)
- Confirmed Complete Response (cCR) ([1]; Cohort 3 (300 mg QD), N = 9): 0 n (%)
- Confirmed Partial Response (cPR) ([1]; Cohort 3 (300 mg QD), N = 9): 1 (11.1) n (%)
- Non-Response - n (%) ([1]; Cohort 4 (400 mg QD), N = 4): 4 (100) n (%)
- Not Applicable (NA) ([1]; Cohort 4 (400 mg QD), N = 4): 0 n (%)
- Not Evaluable (NE) ([1]; Cohort 4 (400 mg QD), N = 4): 0 n (%)
- Progressive Disease (PD) ([1]; Cohort 4 (400 mg QD), N = 4): 2 (50.0) n (%)
- Unconfirmed Complete Response (uCR) ([1]; Cohort 4 (400 mg QD), N = 4): 0 n (%)
- Unconfirmed Partial Response (uPR) ([1]; Cohort 4 (400 mg QD), N = 4): 0 n (%)
- ORR (CR + PR) - n (%) ([1]; Cohort 4 (400 mg QD), N = 4): 0 n (%)
- Response - n (%) ([1]; Cohort 4 (400 mg QD), N = 4): 0 n (%)
- Confirmed Complete Response (cCR) ([1]; Cohort 4 (400 mg QD), N = 4): 0 n (%)
- Confirmed Partial Response (cPR) ([1]; Cohort 4 (400 mg QD), N = 4): 0 n (%)
- Non-Response - n (%) ([1]; Cohort 5 (600 mg QD), N = 3): 3 (100) n (%)
- Not Applicable (NA) ([1]; Cohort 5 (600 mg QD), N = 3): 0 n (%)
- Not Evaluable (NE) ([1]; Cohort 5 (600 mg QD), N = 3): 0 n (%)
- Progressive Disease (PD) ([1]; Cohort 5 (600 mg QD), N = 3): 0 n (%)
- Unconfirmed Complete Response (uCR) ([1]; Cohort 5 (600 mg QD), N = 3): 0 n (%)
- Unconfirmed Partial Response (uPR) ([1]; Cohort 5 (600 mg QD), N = 3): 0 n (%)
- Response - n (%) ([1]; Cohort 5 (600 mg QD), N = 3): 0 n (%)
- Confirmed Complete Response (cCR) ([1]; Cohort 5 (600 mg QD), N = 3): 0 n (%)
- Confirmed Partial Response (cPR) ([1]; Cohort 5 (600 mg QD), N = 3): 0 n (%)
- Non-Response - n (%) ([1]; Overall, N = 26): 22 (84.6) n (%)
- Not Applicable (NA) ([1]; Overall, N = 26): 0 n (%)
- Not Evaluable (NE) ([1]; Overall, N = 26): 1 (3.8) n (%)
- Progressive Disease (PD) ([1]; Overall, N = 26): 8 (30.8) n (%)
- Unconfirmed Complete Response (uCR) ([1]; Overall, N = 26): 0 n (%)
- Unconfirmed Partial Response (uPR) ([1]; Overall, N = 26): 0 n (%)
- ORR (CR + PR) - n (%) ([1]; Overall, N = 26): 4 (15.4) n (%)
- Response - n (%) ([1]; Overall, N = 26): 4 (15.4) n (%)
- Confirmed Complete Response (cCR) ([1]; Overall, N = 26): 0 n (%)
- Confirmed Partial Response (cPR) ([1]; Overall, N = 26): 4 (15.4) n (%)
- CYP2D6 direct inhibition (CYP2D6): did not directly inhibit
- CYP1A2 mRNA expression increase (CYP1A2; 0.5 μM (372 ng/mL)): 1.4 fold
- CYP1A2 mRNA expression increase (CYP1A2; 2 μM): 3.1 fold
- CYP1A2 enzyme activity induction (CYP1A2; hepatocytes): no induction of CYP1A2 enzyme activity was observed
- anti-tumor activity in combination [2]: enhanced anti-tumor activity was observed
- CYP2C8 direct inhibition (CYP2C8): did not directly inhibit
